This is an account of results in patent US8658699B2, “Chemical permeation enhancers enhance nerve blockade by toxins” (priority 2008, dated 2014).

pEC50: −log10 of the molar value. Several values for one entry are separate records, joined by “and”; a condition that tells them apart may be missing. Identical values can stand only once. Like-named read-outs stand apart in the source and are kept apart here. A value given as a limit tells only on which side of the number the result lay.

The test system of data set [1] is sciatic nerve. The following applies: for % Animals with Effective Block / Duration of Sensory Block: Bupivacaine 1.4 mM with the EC50eff of each CPE, listed as '—' = bupivacaine alone; for Duration of Sensory Block: median; for TTX block duration compared to TTX alone: 30 μM TTX with CPE at the concentration giving maximum percentage of block, p<0.001; for Maximum Block Duration (MBD, minutes): CPE co-injected with 30 μM TTX, 0.3 mL at sciatic nerve, median (25th-75th percentiles); for ECMBD: CPE concentration that caused the maximum prolongation of block from 30 μM TTX; for CPE Concentration: lowest CPE concentration needed to achieve the highest percentage of animals with block, with 30 μM TTX; for pEC50: read-out: EC50eff.

Data set [2] concerns sciatic nerve. The following applies: 0.1-0.3 mL of 0.25%-0.5% (8.7-17 mM) bupivacaine (Kohane 1998, 1999); cited from earlier work.
Data set [3] deals with sciatic nerve. Put plainly: animal or person. The following applies: Rattus norvegicus, read-out: EC50eff (mM).
Another data set concerns C2C12 myotubes. The following applies: for % Survival: C2C12 myotubes, 2-hour exposure to each CPE at its EC50eff, head 'TTX 30 μm with:', mean ± SD, from FIG. 2.
Data set [4] concerns sciatic nerves and surrounding muscle.
In data set [5] the test system is sciatic nerve. In kind it is in vivo, Sprague-Dawley rats.
The mark [6] stands for this setting: 30 μM TTX with CPE, effective if latency >7 seconds at any point, listed as '—' = TTX alone.
The mark [7] stands for this setting: EC50eff of each enhancer without TTX, four days after injection, 4 animals per group.

For `CCCCN1CCCCC1C(=O)Nc1c(C)cccc1C` (stereo not drawn) [Bupivacaine, bupivacaine, reference compound], in the data set on sciatic nerve [1], the “% Animals with Effective Block” value is 42% and the “Duration of Sensory Block” value is 0 min. Also, in the data set on sciatic nerve [2], the successful blocks is more than 99%.

Take `CCCCCCCCCCCC[N+](C)(C)C.[Br-]` [DDAB, Dodecyl-trimethyl-ammonium Bromide]: in the data set with sciatic nerve [3], the EC50 amounted to 6 mM. For the same molecule, the “resolution of nerve block” value with sciatic nerve [1] (30 μM TTX in 32 mM DDAB) was “none of those rats' nerve blocks resolved”. In the data set with sciatic nerve [1], the “TTX block duration compared to TTX alone” value was “significantly improved TTX block duration”, the “% Animals with Effective Block” value came to 0%, the “Duration of Sensory Block” value amounted to 0 min and the “ECMBD” value was determined as 8 mM. Besides, the “CPE Concentration” value with sciatic nerve [1] worked out at 6 mM. In addition, the “Highest % Animals with Effective Block” value with sciatic nerve [1] (setting [6]) is reported as 100%. In addition, in the data set on sciatic nerve [1] (32 mM DDAB alone, without TTX, the exception to 'CPE alone did not cause nerve blockade'), the “nerve blockade by CPE alone” value is recorded as “with one exception”. The “Maximum Block Duration (MBD, minutes)” value with sciatic nerve [1] (listed as '—' = TTX alone) was 606 (452-788) minutes. Besides, the “EC100 min” value with sciatic nerve [1] (rat, in vivo) was 1 mM. Besides, the “% Survival” value in the data set on C2C12 myotubes was 5 ± 0.2%. Further, the “histology: tissue damage” value in data set [4] (3% (97.3 mM) DDAB, two animals) is “deep and severe tissue damage, including ischemic necrosis, accompanied by severe and extensive inflammation”. In data set [4] (setting [7]), the “histology: muscle and nerve injury” value was “moderate to severe infiltration of macrophages and lymphocytes, atrophy and degeneration of muscle fibers, and fibrosis of the tissue”. In data set [4] (EC50eff of the enhancers together with 30 μm TTX), the “histology: muscle and nerve injury” value is “severe lymphocytic inflammatory infiltration of muscle with degenerative changes, regenerative changes, and fibrosis”.

In the case of `CCCCCCCC[N+](C)(C)C.[Br-]` [OTAB, Octyl-trimethyl-ammonium Bromide], the EC50 in the data set on sciatic nerve [3] amounted to 30 mM. For the same molecule, in the data set on sciatic nerve [1], the “TTX block duration compared to TTX alone” value is “significantly improved TTX block duration”, the “% Animals with Effective Block” value came out at 0%, the “Duration of Sensory Block” value is 0 min and the “ECMBD” value was determined as 119 mM. The “CPE Concentration” value with sciatic nerve [1] amounted to 40 mM. Moreover, the “Highest % Animals with Effective Block” value in the data set on sciatic nerve [1] (setting [6]) was determined as 100%. Also, the “Maximum Block Duration (MBD, minutes)” value with sciatic nerve [1] (listed as '—' = TTX alone) is on record as 353 (327-361) minutes. Further, the “EC100 min” value in the data set on sciatic nerve [1] (rat, in vivo) stood at 31 mM. Further, the “% Survival” value in the data set on C2C12 myotubes is given as 53 ± 2%. The “histology: muscle and nerve injury” value in data set [4] (setting [7]) was “no significant muscle or nerve injury”.

`Cc1cccc(C)c1NC(=O)C[N+](C)(C)C` [QX-222, 2-((2,6-dimethylphenyl)amino)-N,N,N-trimethyl-2-oxoethanaminium]: in the data set with sciatic nerve [5] (25 and 70 mM QX-314 or 70 and 100 mM QX-222 with 30, 40 or 50 μM TTX, FIGS. 5A and B), the “thermal nociceptive and motor blockade of the combination with TTX” value was “increased blockade significantly more than the mere cumulative value of the anesthetics alone”.

Regarding `CC[N+](CC)(CC)CC(=O)Nc1c(C)cccc1C` [QX-314, N-(2,6)dimethylphenylcarbamoylmethyl triethylammonium bromide], in the data set with sciatic nerve [5] (rat, in vivo), the “thermal nociceptive and motor blockade of the combination with TTX” value is recorded as “increased blockade significantly more than the mere cumulative value of the anesthetics alone”.

Regarding `CCCCCCCCCCCCOS(=O)(=O)[O-].[Na+]` [SLS, Sodium Dodecyl Sulfate], the EC50 with sciatic nerve [3] was 4 mM. Further, in the data set with sciatic nerve [1], the “TTX block duration compared to TTX alone” value was “significantly improved TTX block duration”, the “% Animals with Effective Block” value was 50%, the “Duration of Sensory Block” value stood at 22 min and the “ECMBD” value is recorded as 35 mM. The “CPE Concentration” value in the data set on sciatic nerve [1] came out at 17 mM. Moreover, in the data set with sciatic nerve [1] (setting [6]), the “Highest % Animals with Effective Block” value was found to be 88%. Besides, the “EC100 min” value in the data set on sciatic nerve [1] (interpolated concentration of CPE that increased block duration of 30 μM TTX to 100 min) amounted to 3 mM. Also, in the data set on C2C12 myotubes, the “% Survival” value is on record as 17 ± 11%. The “histology: muscle and nerve injury” value in data set [4] (setting [7]) is reported as “no significant muscle or nerve injury”.

In the case of `CCCCCCCCOS(=O)(=O)[O-].[Na+]` [SOS, Sodium Octyl Sulfate], the EC50 in the data set on sciatic nerve [3] was found to be 32 mM. For the same molecule, in the data set on sciatic nerve [1], the “TTX block duration compared to TTX alone” value is “significantly improved TTX block duration”, the “% Animals with Effective Block” value amounted to 25%, the “Duration of Sensory Block” value turned out to be 0 min and the “ECMBD” value was 86 mM. The “CPE Concentration” value in the data set with sciatic nerve [1] came out at 32 mM. The “Highest % Animals with Effective Block” value in the data set with sciatic nerve [1] (setting [6]) turned out to be 100%. Also, in the data set on sciatic nerve [1] (listed as '—' = TTX alone), the “Maximum Block Duration (MBD, minutes)” value was 521 (361-669) minutes. For the same molecule, the “EC100 min” value in the data set on sciatic nerve [1] (rat, in vivo) is recorded as 22 mM. The “% Survival” value in the data set with C2C12 myotubes was found to be 5 ± 3%. Moreover, in data set [4] (setting [7]), the “histology: muscle and nerve injury” value is given as “no significant muscle or nerve injury”.

Take `NC1=N[C@H](O)[C@H]2[C@H]3O[C@]4(O)O[C@@H]([C@@H](O)[C@@]2(N1)[C@@H]4O)[C@]3(O)CO` [TTX, tetrodotoxin, reference compound]: in the data set on sciatic nerve [1] (rat, in vivo), the “% of animals with sensory blockade (effective nerve block)” value was 29% and 29.2%; the “Highest % Animals with Effective Block” value turned out to be 29%.

As to polysorbate 20 [TW 20], in the data set on sciatic nerve [1], the “TTX block duration compared to TTX alone” value was “significantly improved TTX block duration”, the “% Animals with Effective Block” value is 25%, the “Duration of Sensory Block” value is 0 min and the “ECMBD” value is listed as 49 mM. In addition, in the data set with sciatic nerve [1], the “CPE Concentration” value was found to be 4 mM. Also, in the data set with sciatic nerve [1] (setting [6]), the “Highest % Animals with Effective Block” value is reported as 100%. Also, the “Maximum Block Duration (MBD, minutes)” value with sciatic nerve [1] (listed as '—' = TTX alone) is 163 (129-206) minutes. Further, the “EC100 min” value with sciatic nerve [1] (rat, in vivo) turned out to be 4 mM. The pEC50 in the data set on sciatic nerve [1] (CPE concentration causing half-maximal increase in duration of block (half-MBD) of 30 μM TTX) is 2.52. The “% Survival” value in the data set on C2C12 myotubes stood at 94 ± 3%. Also, the “C2C12 viability after longer exposure” value with C2C12 myotubes (CPE at EC50eff, 8-hour exposure / increasing duration of exposure (data not shown)) is reported as “remained at untreated-control levels”. Moreover, the “histology: muscle and nerve injury” value in data set [4] (setting [7]) is reported as “no significant muscle or nerve injury”. In addition, the “histology: muscle and nerve injury” value in data set [4] (Tween 20 at 24.4 and 81.4 mM) was “progressively worsening (mild to moderate) muscle atrophy and inflammation”.

Consider polysorbate 80 [TW 80], for which, in the data set with sciatic nerve [1], the “TTX block duration compared to TTX alone” value is given as “significantly improved TTX block duration”, the “% Animals with Effective Block” value came to 0%, the “Duration of Sensory Block” value is 0 min and the “ECMBD” value was determined as 81 mM. The “CPE Concentration” value in the data set with sciatic nerve [1] was 81 mM. Moreover, the “Highest % Animals with Effective Block” value in the data set on sciatic nerve [1] (setting [6]) turned out to be 100%. Further, the “Maximum Block Duration (MBD, minutes)” value in the data set on sciatic nerve [1] (listed as '—' = TTX alone) is on record as 120 (111-143) minutes. Moreover, in the data set with sciatic nerve [1] (rat, in vivo), the “EC100 min” value is 40 mM and the pEC50 was 1.47. Also, the “% Survival” value in the data set on C2C12 myotubes was 80 ± 8%. Further, in data set [4] (setting [7]), the “histology: muscle and nerve injury” value is recorded as “no significant muscle or nerve injury”.
